# Experimental data reported in patent US20250064890A1, “PROTEIN COMPOSITIONS FOR THE TREATMENT OF INFLAMMATORY DISEASES” (Unichem Laboratories Limited, priority 2021, published 2025).
# Assays:
# [1] = test system: oral (buccal) mucosa cells (TR146); assay: Cytoprotective effect against 5-FU induced damage (MTT); type: cell-based, human
# Description: The cell viability was assessed by (MTT) assay and compared with positive control (Cells treated with Amifostine, EGCG and EGF and negative assay (untreated cells), wherein the control was the cells that underwent chemotherapy/radiotherapy.
# The protective effect of the recombinant lectin on survival of TR146 cells against 5-FU induced damage was determined using following calculations:
# The viability of cells was determined as: % Cell viability=(100−% Cytotoxicity); • where, the percentage cytotoxicity corresponding to each treatment was calculated as: % Cytotoxicity=[(R−X)/R]*100, wherein X=Absorbance of cells treated with 5-FU or radiation damage/TI+5-FU, R=Absorbance of Control cells (Untreated) and Percentage protection was calculated as:
# {(Absorbance of TI+5-FU or radiation)−(Absorbance of 5-FU or radiation alone)/(Absorbance of Untreated)−(Absorbance of 5-FU alone)}*100
# [2] = Body weight change in 5-FU induced OM hamsters; type: in vivo, golden Syrian hamsters; settings: G3, 0.1 mg/Animal in buccal cheek pouch, Day 4 to Day 12, with respect to Day 4
# Description: In-vivo experiments conducted in healthy golden Syrian hamsters wherein animals were grouped as below:
# (§1) To induce OM, animals were administered (except normal control) 5-Fluorouracil (5-FU) by intraperitoneal route at doses of 60 mg/kg & 40 mg/kg respectively on first two days. On Day 4, under anesthesia, with aim of enhancing OM, mechanical irritation of the oral mucosa were done using wire brush. Treatment was initiated from Day 4 to Day 12. For group 3 animals 100 μl of vehicle comprising of standard drug Dexamethasone at 0.1 mg was instilled in buccal cheek pouch. For group 4, 5 and 6 animals 100 μl of vehicle comprising of SEQ ID NO. 2 at 0.25 mg, 0.5 mg & 1 mg, respectively was instilled in buccal cheek pouch. At the end of treatment period, cheek pouch of the hamsters was exposed, Mucositis scoring was carried out and images were captured. The animals were then humanely sacrificed, cheek pouch/jugular mucosa were isolated and used for biomarker estimation and histopathological investigation by using ELISA method and Hematoxylin and Eosin (H&E) staining, respectively.
# Body weight of each animal was recorded daily till the end of experiment. Percentage change in body weight of the animals was calculated by using formula with respect to Day 4.
# [3] = test system: 5-Fluorouracil induced OM; assay: Mucositis severity score, 5-FU induced OM in hamsters; type: in vivo, golden Syrian hamsters; settings: G3, 0.1 mg/Animal, after 12 days; scale 0-5
# Description: as §1
# Mucositis severity was scored as given below: • Cheek pouch completely healthy—0; Mild erythema—1; • Severe erythema and superficial erosion—2; Formation of ulcers in one or more places—3; Cumulative ulcer formation about 50% of cheek pouch surface area—4; Complete ulceration of the cheek pouch mucosa—5.
# [4] = test system: TNF-α; assay: TNF-α in jugular mucosa (ELISA), 5-FU induced OM in hamsters; type: in vivo, golden Syrian hamsters; settings: G3, 0.1 mg/Animal
# Description: as §1
# (§2) Further, for biomarker estimation jugular mucosa was dissected out, tissue weighed and stored in ice cold 1×PBS. 100 mg of tissue was taken and in 1 ml of 1×PBS buffer. Supernatant of homogenate was used for analysis of TNF-α and Interleukin-1β using ELISA method as per manufacturers instruction. The levels of TNF-α and Interleukin-1β are given in Table 13, FIG. 2 and Table 14, FIG. 3, respectively.
# [5] = test system: Interleukin-1β; assay: Interleukin-1β in jugular mucosa (ELISA), 5-FU induced OM in hamsters; type: in vivo, golden Syrian hamsters; settings: G3, 0.1 mg/Animal
# Description: as §1, §2
# [6] = test system: 5-Fluorouracil induced OM; assay: Histopathology score of cheek pouch, 5-FU induced OM in hamsters; type: in vivo, golden Syrian hamsters; settings: G3, 0.1 mg/Animal; scale 1-5
# Description: as §1
# For histopathology the oral mucosa tissues were sectioned 5 μm thickness and stained with hematoxylin-eosin staining. For study histopathological the sections were analyzed by light microscopy.
# The pouch/jugular mucosa were observed and scored for infiltration of inflammatory cells, vasodilatation, presence of hemorrhagic areas, edema, ulcerations, and abscesses.
SMILES,% Protection ([1]; 0.01 μM + 5-FU (5 mM)) [%],% cytotoxicity ([1]; 0.01 μM + 5-FU (5 mM)) [%],% viability ([1]; 0.01 μM + 5-FU (5 mM)) [%],% Protection ([1]; 0.1 μM + 5-FU (5 mM)) [%],% cytotoxicity ([1]; 0.1 μM + 5-FU (5 mM)) [%],% viability ([1]; 0.1 μM + 5-FU (5 mM)) [%],% Protection ([1]; 1 μM + 5-FU (5 mM)) [%],% cytotoxicity ([1]; 1 μM + 5-FU (5 mM)) [%],% viability ([1]; 1 μM + 5-FU (5 mM)) [%],% Protection ([1]; 10 μM + 5-FU (5 mM)) [%],% cytotoxicity ([1]; 10 μM + 5-FU (5 mM)) [%],% viability ([1]; 10 μM + 5-FU (5 mM)) [%],decrease of body weight [2] [%],Mucositis score [3],"TNF-α levels, Mean [4] [pg/mL]","TNF-α levels, % Decrease vs G2 ([4]; G2 = OM + Vehicle) [%]","IL-1β levels, Mean [5]","IL-1β levels, % Decrease vs G2 ([5]; G2 = OM + Vehicle) [%]","Histopathology score, Mean [6]"
"O=C(O[C@@H]1Cc2c(O)cc(O)cc2O[C@@H]1c1cc(O)c(O)c(O)c1)c1cc(O)c(O)c(O)c1 [EGCG, Epigallocatechin gallate]",19.5,47,53,42.4,33.6,66.4,47.9,30.4,69.6,24.2,44.2,55.8,–,–,–,–,–,–,–
"C[C@@H]1C[C@H]2[C@@H]3CCC4=CC(=O)C=C[C@]4(C)[C@@]3(F)[C@@H](O)C[C@]2(C)[C@@]1(O)C(=O)CO [Dexamethasone, reference compound]",–,–,–,–,–,–,–,–,–,–,–,–,6.59,2.00±0.3,134.29,−8.29,163.96,5.59,1.6
